Assay results from US20200009088A1, “COMPOSITIONS AND METHODS FOR TREATING ANDROGEN-INDEPENDENT CANCER” (The Regents of the University of California, priority 2017, published 2020).
“Also recorded” adds a separate entry of the source.

What was measured:
[1] = tested on: CWR22Rv1 tumor xenografts; assay: CWR22Rv1 tumor xenograft growth in vivo
Procedure: (§1) Tumor volume, tumor weight, and body weight were measured. Protein lysates were isolated from the tumors and analyzed for AR and AR-V7 expression by Western blot. […] “AR-Variants” represents a combination of all forms of AR. * denotes p<0.05.
(§2) Protein lysates were isolated and analyzed for AR and AR-V7 expression by Western blot.

[2] = molecular target: T1, AR-V7 (Homo sapiens, UniProt P10275); assay: Western blot of AR-V7 in CWR22Rv1 xenograft tumor lysates; type: in vivo; design: endogenous in cells; host or cells: CWR22Rv1 prostate cancer cells (also grown as xenograft tumours); conditions: CWR22Rv1 xenograft lysates vs controls, FIG. 13D
T1 sequence (P10275 1-644 isoform P10275-3): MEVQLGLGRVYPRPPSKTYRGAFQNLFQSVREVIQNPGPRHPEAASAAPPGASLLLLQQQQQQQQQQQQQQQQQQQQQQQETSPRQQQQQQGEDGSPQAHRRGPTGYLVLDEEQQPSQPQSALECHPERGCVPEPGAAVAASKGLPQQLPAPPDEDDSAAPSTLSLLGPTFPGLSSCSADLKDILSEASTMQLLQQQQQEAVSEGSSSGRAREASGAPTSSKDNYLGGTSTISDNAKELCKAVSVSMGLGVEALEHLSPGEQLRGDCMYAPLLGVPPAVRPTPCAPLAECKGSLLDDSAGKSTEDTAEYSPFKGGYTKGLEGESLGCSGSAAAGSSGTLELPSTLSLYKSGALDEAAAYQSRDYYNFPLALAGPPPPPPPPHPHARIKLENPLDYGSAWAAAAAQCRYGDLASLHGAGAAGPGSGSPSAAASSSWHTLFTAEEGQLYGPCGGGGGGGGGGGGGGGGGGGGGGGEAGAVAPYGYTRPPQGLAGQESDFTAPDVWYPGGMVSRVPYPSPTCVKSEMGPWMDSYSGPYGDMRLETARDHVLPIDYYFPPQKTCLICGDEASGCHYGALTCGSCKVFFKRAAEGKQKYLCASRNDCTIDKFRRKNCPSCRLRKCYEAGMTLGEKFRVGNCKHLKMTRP
Procedure: as §1, §2

[3] = tested on: C4-2B AbiR cells; assay: Cell growth assay (cell numbers), C4-2B AbiR; type: cell-based; conditions: 0.5 μM + enzalutamide, 48 hours, FIG. 7C
[4] = tested on: AR; assay: Western blot of AR expression in CWR22Rv1 cell lysates; type: cell-based; conditions: CWR22Rv1 cells, FIG. 2A
Procedure: (§3) “AR-Variants” represents a combination of all forms of AR.
The effects of the synthetic small molecule modulators on AR and AR variant expression were determined. CWR22Ry1 prostate cancer cells were treated with different compounds. Protein lysates were analyzed for AR and AR variant expression.

[5] = molecular target: T2, L702H AR mutant (Homo sapiens, UniProt P10275, L702H); assay: AR transactivation luciferase assay in HEK 293 cells, L702H; type: cell-based; conditions: luciferase reporter, FIG. 5F
T2 construct: expressed in transfected cells; host or cells: HEK 293
Procedure: (§4) HEK 293 cells were transiently transfected with expression vectors encoding the corresponding mutant AR and an androgen-responsive luciferase reporter gene construct. […] Luciferase activity was then determined.

[6] = tested on: LuCaP 35CR PDX xenograft; assay: LuCaP 35CR PDX tumor model, oral administration; type: in vivo, mice
Excerpt: For the data shown in FIG. 19A, a LuCaP 35CR PDX model was established in male castrated SCID mice. […] Tumor and body weights are shown in FIGS. 19B and 19C, respectively.

[7] = molecular target: T3, K581R AR mutant (Homo sapiens, UniProt P10275, K581R); assay: AR transactivation luciferase assay in HEK 293 cells, K581R; type: cell-based; conditions: luciferase reporter, FIG. 5D
T3 construct: expressed in transfected cells; host or cells: HEK 293
Procedure: as §4

[8] = tested on: AR variants; assay: AR variant protein degradation (cycloheximide, MG132, ubiquitin IP) in C4-2B MDVR cells; type: cell-based; conditions: FIG. 16
Procedure: as §3
To determine if the small molecule modulators affect AR-V7 protein expression via protein degradation, CWR22Rv1 and C4-2B MDVR cells were treated with cycloheximide (CHX) and the half-life of AR-V7 protein was measured.
After 0, 2, 4, and 8 hours, whole cell lysate was collected and subjected to Western blot. Half-life of AR-V7 was then calculated.
Whole cell lysate was subsequently collected and subjected to Western blot.
Whole cell lysate was immunoprecipitated with an AR antibody and blot with ubiquitin and AR antibodies.

[9] = tested on: CWR22Rv1 cells; assay: Cell growth assay (cell numbers), CWR22Rv1; type: cell-based; conditions: for synergy with abiraterone in inhibiting cell growth: CWR22Rv1, analog 0.25 μM + abiraterone 5 μM; for cell growth, combination with abiraterone: CWR22Rv1, analog 0.25 μM + abiraterone 5 μM, 0, 3, 5 days; for cell growth, combination with abiraterone / cell growth, combination with enzalutamide: FIGS. 9, 11; for cell growth, combination with bicalutamide: CWR22Rv1, analog 0.25 μM + bicalutamide 20 μM, 0, 3, 5 days; for synergy with enzalutamide in inhibiting cell growth: CWR22Rv1, analog 0.25 μM + enzalutamide 20 μM; for cell growth, combination with enzalutamide: CWR22Rv1, analog 0.25 μM + enzalutamide 20 μM, 0, 3, 5 days; for cell growth, niclosamide analog alone: CWR22Rv1, analog 0.25 μM, 0, 3, 5 days, FIGS. 9, 11, 12
Procedure: DMSO treatment was used as a negative control. Total cell numbers were counted at 0, 3, and 5 days.
DMSO treatment was used as a negative control. Total cell numbers were counted at 0, 3, and 5 days. […]
The cell growth was determined at 3,5 days. […] The cell growth was determined at 3,5 days.

[10] = tested on: MDA-MB-468 cells; assay: Breast cancer cell growth, MDA-MB-468; type: cell-based; conditions: three days, FIG. 20A
[11] = tested on: CWR22Rv1 cells; assay: Cell growth assay (cell numbers), CWR22Rv1; type: cell-based; conditions: for cell proliferation, combination with enzalutamide (MDV): CWR22Rv1, 0.5 μM + enzalutamide, 48 hours, FIG. 7A; for cell growth: CWR22Rv1, 48 hours, increasing doses of niclosamide/analogs, FIG. 6
[12] = tested on: AR; assay: Western blot of AR in CWR22Rv1 xenograft tumor lysates; type: in vivo; conditions: CWR22Rv1 xenograft lysates vs controls, FIG. 13D
Procedure: as §1, §2

[13] = in vivo; conditions: male, Sprague-Dawley, rat, in vivo, po, 200 mg/kg
Procedure: Blood samples were obtained at the time points indicated in FIG. 18 (0 minutes, 15 minutes, 30 minutes, 1 hour, 1.5 hours, 2 hours, 4 hours, 6 hours, 8 hours, and 24 hours) and the plasma was isolated for LC-MS analysis.

Compound	cell proliferation, combination with enzalutamide (MDV) [3]	AR expression [4]	L702H mutant AR transactivation [5]	K581R mutant AR transactivation [7]	AR variant degradation via the proteasome-ubiquitination system [8]	synergy with abiraterone in inhibiting cell growth [9]	cell growth, combination with abiraterone [9]	cell growth, combination with bicalutamide ([9]; FIG. 12)	synergy with enzalutamide in inhibiting cell growth [9]	cell growth, combination with enzalutamide [9]	cell growth, niclosamide analog alone [9]	breast cancer cell growth [10]	cell proliferation, combination with enzalutamide (MDV) [11]	cell growth [11]	AUC(0-inf) [13] [µM·h]	AUC_% Extrap_obs [13]	HL_Lambda_z [13] [min]	also measured
O=C(Nc1ccc(C(F)(F)F)cc1Cl)c1cc(Cl)ccc1O [Compound 7]	further inhibited	inhibited	significantly blocked	significantly blocked	degraded	able to synergize	able to significantly inhibit	able to significantly inhibit	able to synergize	able to significantly inhibit	None of Compounds 1, 7, 30, 31, or 34 alone were able to inhibit	inhibited	further inhibited	able to inhibit cell growth in a dose-dependent manner	4.28	15.35 +/− 3.08%	580.54 ± 86.4	body weight ([1]; FIG. 13B): without inhibition of body weight; tumor growth ([1]; FIGS. 13A-13C): significantly inhibited; AR-V7 protein expression in tumors [2]: significantly inhibited; serum PSA levels compared with niclosamide ([6]; both p.o. 150 mg/kg): to a greater extent than niclosamide; anti-tumor activity (tumor volume) compared with niclosamide ([6]; both p.o. 150 mg/kg, 150 mg/kg): to a greater extent than niclosamide; also recorded: better anti-tumor activity than niclosamide; tumor growth ([6]; castrated SCID mice, p.o. 150 mg/kg, 4 weeks, FIG. 19, 150 mg/kg): significantly inhibited; also recorded: suppressed; body weight ([6]; castrated SCID mice, p.o. 150 mg/kg, 4 weeks, FIG. 19C): without inhibition of body weight; PSA protein expression in mouse sera ([6]; p.o. 150 mg/kg, 4 weeks, FIG. 19D): inhibited; enhancement of abiraterone treatment (cell growth) ([9]; CWR22Rv1, 0.5 μM Compound 7 + 5 μM abiraterone, 3,5 days, FIG. 17B): significantly enhanced; enhancement of apalutamide treatment (cell growth) ([9]; CWR22Rv1, 0.5 μM Compound 7 + 20 μM apalutamide, 3,5 days, FIG. 17A): significantly enhanced; AR protein expression in tumors [12]: significantly inhibited
C=CC(=O)Oc1ccc(Cl)cc1C(=O)Nc1ccc([N+](=O)[O-])cc1Cl [Compound 31]	further inhibited	inhibited	significantly blocked	significantly blocked	degraded	able to synergize	significantly inhibited	able to significantly inhibit	able to synergize	significantly inhibited	None of Compounds 1, 7, 30, 31, or 34 alone were able to inhibit	inhibited	further inhibited	able to inhibit cell growth in a dose-dependent manner	6.48	2.3 +/− 1.85%	276.51 ± 92.17	synergy with bicalutamide in inhibiting cell growth ([9]; CWR22Rv1, analog 0.25 μM + bicalutamide 20 μM, FIG. 12): able to synergize; AUC(0-t) [13]: 6.37 µM·h; Cmax [13]: 2690 nM; Tmax [13]: 25 min; Cmax ([13]; Cmax): 2680 nM
